Laboratory results published in patent US11542297B2, “Compositions and methods for treating CNS disorders” (Sage Therapeutics, Inc., priority 2014, dated 2023).

What follows are compounds tested against rat brain cortical membranes ([35S]-TBPS binding, GABA receptor complex) (assay: Steroid inhibition of [35S]-TBPS binding). Conditions: in the presence of 5 μM GABA, read-out: 35S-TBPS Radioligand Displacement (IC50).
Procedure: TBPS binding assays using rat brain cortical membranes in the presence of 5 μM GABA has been described (Gee et al, J. Pharmacol. Exp. Ther. 1987, 241, 346-353; Hawkinson et al, Mol. Pharmacol. 1994, 46, 977-985; Lewin, A. H et al., Mol. Pharmacol. 1989, 35, 189-194).
Briefly, cortices are rapidly removed following decapitation of carbon dioxide-anesthetized Sprague-Dawley rats (200-250 g). The cortices are homogenized in 10 volumes of […] using a glass/teflon homogenizer and centrifuged at 1500×g for 10 min at 4° C. The resultant supernatants are centrifuged at 10,000×g for 20 min at 4° C. to obtain the P2 pellets. The P2 pellets are resuspended in 200 mM NaCl/50 mM Na—K phosphate pH 7.4 buffer and centrifuged at 10,000×g for 10 min at 4° C. This washing procedure is repeated twice and the pellets are resuspended in 10 volumes of buffer. Aliquots (100 μL) of the membrane suspensions are incubated with 3 nM [^35S]-TBPS and 5 μL aliquots of test drug dissolved in dimethyl sulfoxide (DMSO) (final 0.5%) in the presence of 5 μM GABA. The incubation is brought to a final volume of 1.0 mL with buffer. […] Following a 90 min incubation at room temp, the assays are terminated by filtration through glass fiber filters (Schleicher and Schuell No. 32) using a cell harvester (Brandel) and rinsed three times with ice-cold buffer. Filter bound radioactivity is measured by liquid scintillation spectrometry. Non-linear curve fitting of the overall data for each drug averaged for each concentration is done using Prism (GraphPad).
Various compounds are or can be screened to determine their potential as modulators of [^35S]-TBPS binding in vitro. These assays are or can be performed in accordance with the above discussed procedures.

`C[C@@H](C(=O)[C@H]1CC[C@H]2[C@@H]3CC[C@@H]4C[C@](C)(O)CC[C@]4(C)[C@H]3CC[C@]12C)n1nc2ccccc2n1` [Compound 61, (S)-2-(2H-benzo[d][1,2,3]triazol-2-yl)-1-((3R,5R,8R,9S,10S,13S,14S, 17S)-3-hydroxy-3,10,13-trimethylhexadecahydro-1H-cyclopenta[a]phenanthren-17-yl)propan-1-one] was tested. Which IC50 did it give?
Its IC50 is 0.1 to 0.5 µM.

How did the IC50 turn out when `C[C@@]1(O)CC[C@@]2(C)[C@H](CC[C@@H]3[C@@H]2CC[C@]2(C)[C@@H](C(=O)Cn4nc5ccc(S(C)(=O)=O)cc5n4)CC[C@@H]32)C1` [Compound 104, 1-((3R,5R,8R,9S,10S,13S,14S,17S)-3-hydroxy-3,10,13-trimethylhexadecahydro-1H-cyclopenta[a]phenanthren-17-yl)-2-(5-(methylsulfonyl)-2H-benzo[d][1,2,3]triazol-2-yl)ethanone] was run?
Its IC50 is under 0.01 µM.

Which IC50 does the source give for `C[C@H](C(=O)[C@H]1CC[C@H]2[C@@H]3CC[C@H]4C[C@](C)(O)CC[C@]4(C)[C@H]3CC[C@]12C)n1cc(C#N)cn1` [Compound 80, 1-((R)-1-((3R,5S,8R,9S,10S,13S,14S,17S)-3-hydroxy-3,10,13-trimethylhexadecahydro-1H-cyclopenta[a]phenanthren-17-yl)-1-oxopropan-2-yl)-1H-pyrazole-4-carbonitrile] here?
The IC50 was 0.1 to 0.5 µM.

Which IC50 does the source give for `C[C@H](C(=O)[C@H]1CC[C@H]2[C@@H]3CC[C@@H]4C[C@](C)(O)CC[C@]4(C)[C@H]3CC[C@]12C)n1nccn1` [Compound 56, (R)-1-((3R,5R,8R,9S,10S,13S,14S,17S)-3-hydroxyl-3,10,13-trimethylhexadecahydro-1H-cyclopenta[a]phenanthren-17-yl)-2-(2H-1,2,3-triazol-2-yl)propan-1-one] here?
Its IC50 is 0.05 to 0.1 µM.

How did the IC50 turn out when `C[C@H](C(=O)[C@H]1CC[C@H]2[C@@H]3CC[C@@H]4C[C@](C)(O)CC[C@]4(C)[C@H]3CC[C@]12C)n1ccnn1` [Compound 58, (R)-1-((3R,5R,8R,9S,10S,13S,14S,17S)-3-hydroxy-3,10,13-trimethylhexadecahydro-1H-cyclopenta[a]phenanthren-17-yl)-2-(1H-1,2,3-triazol-1-yl)propan-1-one] was run?
Its IC50 is over 0.5 µM.

How did the IC50 turn out when `C[C@H](C(=O)[C@H]1CC[C@H]2[C@@H]3CC[C@H]4C[C@](C)(O)CC[C@]4(C)[C@H]3CC[C@]12C)n1ccnn1` [Compound 92, (R)-1-((3R,5S,8R,9S,10S,13S,14S,17S)-3-hydroxy-3,10,13-trimethylhexadecahydro-1H-cyclopenta[a]phenanthren-17-yl)-2-(1H-1,2,3-triazol-1-yl)propan-1-one] was run?
The IC50 was over 0.5 µM.

For `C[C@@H](C(=O)[C@H]1CC[C@H]2[C@@H]3CC[C@@H]4C[C@](C)(O)CC[C@]4(C)[C@H]3CC[C@]12C)n1nnc2ccccc21` [Compound 63, (S)-2-(1H-benzo[d][1,2,3]triazol-1-yl)-1-((3R,5R,8R,9S,10S,13S,14S,17S)-3-hydroxy-3,10,13-trimethylhexadecahydro-1H-cyclopenta[a]phenanthren-17-yl)propan-1-one], which IC50 is on record?
The IC50 was 0.01 to 0.05 µM.

`CN(C)C(=O)c1cnn(CC(=O)[C@H]2CC[C@H]3[C@@H]4CC[C@H]5C[C@](C)(O)CC[C@]5(C)[C@H]4CC[C@]23C)c1` [Compound 86] was tested. Which IC50 did it give?
Its IC50 is under 0.01 µM.

`C[C@@H](C(=O)[C@H]1CC[C@H]2[C@@H]3CC[C@H]4C[C@](C)(O)CC[C@]4(C)[C@H]3CC[C@]12C)n1cc(C#N)cn1` [Compound 81, 1-((S)-1-((3R,5S,8R,9S,10S,13S,14S,17S)-3-hydroxy-3,10,13-trimethylhexadecahydro-1H-cyclopenta[a]phenanthren-17-yl)-1-oxopropan-2-yl)-1H-pyrazole-4-carbonitrile] was tested. Which IC50 did it give?
Its IC50 is 0.01 to 0.05 µM.

Which IC50 does the source give for `CSc1ccc2nnn(CC(=O)[C@H]3CC[C@H]4[C@@H]5CC[C@H]6C[C@](C)(O)CC[C@]6(C)[C@H]5CC[C@]34C)c2c1` [Compound 248] here?
Its IC50 is under 0.01 µM.

For `CC(C)(C(=O)[C@H]1CC[C@H]2[C@@H]3CC[C@H]4C[C@](C)(O)CC[C@]4(C)[C@H]3CC[C@]12C)n1nnc2ccccc21` [Compound 102, 2-(1H-benzo[d][1,2,3]triazol-1-yl)-1-((3R,5S,8R,9S,10S,13S,14S,17S)-3-hydroxy-3,10,13-trimethylhexadecahydro-1H-cyclopenta[a]phenanthren-17-yl)-2-methylpropan-1-one], which IC50 is on record?
The IC50 was over 0.5 µM.

With `C[C@H](C(=O)[C@H]1CC[C@H]2[C@@H]3CC[C@H]4C[C@](C)(O)CC[C@]4(C)[C@H]3CC[C@]12C)n1nccn1` [Compound 90, (R)-1-((3R,5S,8R,9S,10S,13S,14S,17S)-3-hydroxy-3,10,13-trimethylhexadecahydro-1H-cyclopenta[a]phenanthren-17-yl)-2-(2H-1,2,3-triazol-2-yl)propan-1-one] as the compound, how does the IC50 read?
The IC50 was over 0.5 µM.

For `C[C@@]1(O)CC[C@@]2(C)[C@H](CC[C@@H]3[C@@H]2CC[C@]2(C)[C@@H](C(=O)Cn4cc(C#N)cn4)CC[C@@H]32)C1` [Compound 10, 1-(2-((3R,5R,8R,9S,10S,13S,14S,17S)-3-hydroxy-3,10,13-trimethylhexadecahydro-1H-cyclopenta[a]phenanthren-17-yl)-2-oxoethyl)-1H-pyrazole-4-carbonitrile], which IC50 is on record?
The IC50 was under 0.01 µM.

With `C[C@@]1(O)CC[C@@]2(C)[C@@H](CC[C@@H]3[C@@H]2CC[C@]2(C)[C@@H](C(=O)Cn4nc5cccc(F)c5n4)CC[C@@H]32)C1` [Compound 246] as the compound, how does the IC50 read?
Its IC50 is under 0.01 µM.

For `C[C@H](C(=O)[C@H]1CC[C@H]2[C@@H]3CC[C@H]4C[C@](C)(O)CC[C@]4(C)[C@H]3CC[C@]12C)n1nnc2ccccc21` [Compound 100, (R)-2-(1H-benzo[d][1,2,3]triazol-1-yl)-1-((3R,5S,8R,9S,10S,13S,14S,17S)-3-hydroxy-3,10,13-trimethylhexadecahydro-1H-cyclopenta[a]phenanthren-17-yl)propan-1-one], which IC50 is on record?
Its IC50 is over 0.5 µM.

Which IC50 does the source give for `CC(C(=O)[C@H]1CC[C@H]2[C@@H]3CC[C@H]4C[C@](C)(O)CC[C@]4(C)[C@H]3CC[C@]12C)N1CCOCC1` (stereo partly drawn) [Compound 155] here?
The IC50 was over 0.5 µM.

Each compound was assayed against α1β2γ2 GABAA receptors (Homo sapiens (Human), UniProt P14867+P47870) (assay: Patch clamp electrophysiology of recombinant α1β2γ2 GABAA receptors (Qpatch in Ltk cells)). Conditions: 10 μM test article, potentiation of GABA EC20 (2 μM) current.
Format: cell-based
Procedure: Cellular electrophysiology is used to measure the pharmacological properties of our GABAA receptor modulators in heterologous cell systems. […] LTK cells are stably transfected with the α1β2γ2 subunits of the GABA receptor and CHO cells are transiently transfected with the α4β3δ subunits via the Lipofecatamine method. Cells were passaged at a confluence of about 50-80% and then seeded onto 35 mm sterile culture dishes containing 2 ml culture complete medium without antibiotics or antimycotics. Confluent clusters of cells are electrically coupled (Pritchett et al., Science, 1988, 242, 1306-1308).
Whole cell currents were measured with HEKA EPC-10 amplifiers using PatchMaster software or by using the high throughput QPatch platform (Sophion). […] In some cases 0.005% cremophor was also added. Intracellular (pipette) solution contained: KCl 130 mM, MgCl2 1 mM, Mg-ATP 5 mM, HEPES 10 mM, EGTA 5 mM, pH 7.2. […] For manual patch clamp recordings, cell culture dishes were placed on the dish holder of the microscope and continuously perfused (1 ml/min) with bath solution. […] For experiments using the QPatch system, cells were transferred as suspension to the QPatch system in the bath solution and automated whole cell recordings were performed.
Cells were voltage clamped at a holding potential of −80 mV. […]

`C[C@@]1(O)CC[C@@]2(C)[C@@H](CC[C@@H]3[C@@H]2CC[C@]2(C)[C@@H](C(=O)Cn4nnc5ccc(Cl)c(F)c54)CC[C@@H]32)C1` [Compound 113] was tested. Which “GABA (α1β2γ2) Qpatch in Ltk, % efficacy at 10 μM” value did it give?
The value was “B (“B” >100-500)”.

Same assay, conditions: 10 μM test article, potentiation of GABA EC20 (2 μM) current, read-out: GABA (α1β2γ2) Qpatch in Ltk, % efficacy at 10 μM

For `C[C@@]1(O)CC[C@@]2(C)[C@H](CC[C@@H]3[C@@H]2CC[C@]2(C)[C@@H](C(=O)Cn4nc5ccc(OC(F)(F)F)cc5n4)CC[C@@H]32)C1` [Compound 106], which Emax at 10 µM is on record?
The Emax at 10 µM was 100 to 500%.
